Experimental data published in paper PMC6470699, “BcXyl, a β-xylosidase Isolated from Brunfelsia Calycina Flowers with Anthocyanin-β-glycosidase Activity” (International Journal of Molecular Sciences, 2019).

Biological target: T1, BcXyl (β-xylosidase, anthocyanin-β-glycosidase) (Brunfelsia pauciflora, UniProt A0A6G5NV63)
T1 construct: gene xyl; native purification from stage 2 petals (ammonium sulfate, DEAE, CM); about 72 kDa on SDS-PAGE; cDNA codes for 786 aa with predicted signal peptide 1-27; MS/MS peptides AVSNNFATLMR, LPMTWYPQSYADK, VTQQDLDDTFNPPFK, HYTAYDIDDWK, YEWWSEALHGISYTGPGVK
T1 sequence (A0A6G5NV63 28-785 limits assumed): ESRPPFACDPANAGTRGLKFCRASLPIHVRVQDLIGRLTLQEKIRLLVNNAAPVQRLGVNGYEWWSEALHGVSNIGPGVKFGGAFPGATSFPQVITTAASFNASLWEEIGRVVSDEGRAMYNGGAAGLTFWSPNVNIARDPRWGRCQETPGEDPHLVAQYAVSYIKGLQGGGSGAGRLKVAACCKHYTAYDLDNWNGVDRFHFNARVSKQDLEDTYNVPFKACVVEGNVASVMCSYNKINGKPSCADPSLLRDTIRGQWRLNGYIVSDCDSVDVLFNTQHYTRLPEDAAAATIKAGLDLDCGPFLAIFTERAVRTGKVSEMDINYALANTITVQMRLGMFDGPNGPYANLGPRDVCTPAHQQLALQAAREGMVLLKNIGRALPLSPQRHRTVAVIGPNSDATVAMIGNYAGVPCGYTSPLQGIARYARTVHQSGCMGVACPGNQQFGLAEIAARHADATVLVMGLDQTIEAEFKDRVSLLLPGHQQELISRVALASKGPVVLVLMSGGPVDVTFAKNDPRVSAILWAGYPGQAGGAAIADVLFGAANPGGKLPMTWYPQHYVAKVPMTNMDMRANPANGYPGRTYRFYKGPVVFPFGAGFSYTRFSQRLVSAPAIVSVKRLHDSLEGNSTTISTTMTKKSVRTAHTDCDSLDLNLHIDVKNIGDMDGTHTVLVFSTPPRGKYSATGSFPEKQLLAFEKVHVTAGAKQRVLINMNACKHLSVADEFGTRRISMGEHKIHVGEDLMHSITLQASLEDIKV
Experiment: p-nitrophenol release at […] nm
Format: biochemical
Conditions: read-out: Residual Activity (%)

Question: Which remaining activity at 1000 µM does the source give for O=C(O)[C@H](O)[C@@H](O)[C@H](O)[C@H](O)CO [D-gluconic acid] here?
Answer: 13.2 ± 0.69%
